Reference: ChEMBL document CHEMBL1201862, “PubChem BioAssay data set” (2004)
Several values for one entry are separate records, joined by “and”; a condition that tells them apart may be missing. Equal values may be shown once. Activity calls are given as the source filed them.

Experiments:
[1] = target: T1, Voltage-gated N-type calcium channel alpha-1B subunit/Amyloid beta A4 precursor protein-binding family A member 1 (Homo sapiens, UniProt Q00975+Q02410); experiment: disruptors of Mint-PDZ/N-type channel peptide interaction – biochemical, HTRF, SAR follow-up (AID 2489); type: functional
[2] = target: T1, Voltage-gated N-type calcium channel alpha-1B subunit/Amyloid beta A4 precursor protein-binding family A member 1; experiment: disruptors of Mint-PDZ/N-type channel peptide interaction – biochemical, HTRF, set 2, SAR follow-up (AID 434980); type: functional
cells = type: functional
Salmon testes DNA = experiment: DNA intercalators displacing acridine orange, dose response, artefact control for KSHV LANA DNA-binding inhibitor project, biochemical, fluorescence polarization, cherry-picked samples, set 2 (AID 504727); set-up: species or system Salmonidae
BJ = experiment: cytotoxicity toward Ras-transformed BJeLR fibroblasts, dose response, cell-based, alamar blue fluorescence, cherrypicked samples (AID 2631); type: functional; details: Homo sapiens;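 also: confirmatory dose-response assay in RAS-dependent BJ fibroblasts engineered with TERT, LT and ST, with cytotoxicity read by fluorescence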
[3] = NIH-3T3 fibroblast cytotoxicity, dose response, cytotoxicity control, cell-based, fluorescence, Alamar Blue, secondary assay (AID 2327); type: functional;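 also: NIH-3T3 mouse fibroblasts cultured with fluconazole at 8 µg/mL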
X-box-binding protein 1 = X-box-binding protein 1 (Homo sapiens, UniProt P17861); type: functional, Cricetulus griseus;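 also: confirmatory dose-response counter-screen serving a CHOP assay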
[4] = Shn3 3'UTR reporter inhibitors, dose response, cell-based, Clone20 osteoblasts, firefly luciferase, cherry-picked (AID 624132); type: functional;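 also: firefly luciferase luminescence from reporter carrying the Shn3 3'UTR in osteoblasts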
[5] = C. albicans growth with fluconazole, confirmation, fluorescence, retest (AID 2467); type: functional, cell-based
[6] = control 3'UTR Renilla luciferase suppression, dose response, counter-screen for Shn3 inhibitor project, cell-based, Clone20-Shn3RL, cherry-picked (AID 624133); type: functional
[7] = HepG2 cell cytotoxicity, dose response, cytotoxicity control for Shn3 inhibitor project, CellTiter-Glo, cherry-picked (AID 624134); type: functional, cell-based
HeLa = experiment: Cytotoxicity counterscreen assay for transcriptional activators of heat shock protein 70 (Hsp70). [Related pubchem assays: 1203, 1252 ]; type: functional; details: Homo sapiens;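 also: cells exposed to compound for 16 hours before readout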
[8] = target: Female germline-specific tumor suppressor gld-1 (Caenorhabditis elegans, UniProt Q17339); experiment: inhibitors of GLD-1 binding to TGE RNA, dose response, biochemical, fluorescence polarization, C. elegans (AID 2802);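 also: fluorescence polarization of labeled TGE RNA bound by purified gld-1 protein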
Protein Rev = Protein Rev (Human immunodeficiency virus type 1 group M subtype B (isolate HXB2)(HIV-1), UniProt P04618); experiment: inhibitors of Rev binding to RRE RNA, dose response, biochemical, fluorescence polarization, HIV-1 (AID 434976); set-up: species or system Human immunodeficiency virus 1
[9] = target: T2, Zinc finger protein mex-5 (Caenorhabditis elegans, UniProt Q9XUB2); experiment: MEX-5/TCR-2 RNA interaction inhibitors, dose response, biochemical, C. elegans, fluorescence polarization (AID 1960)
T2 sequence (Q9XUB2 whole entry): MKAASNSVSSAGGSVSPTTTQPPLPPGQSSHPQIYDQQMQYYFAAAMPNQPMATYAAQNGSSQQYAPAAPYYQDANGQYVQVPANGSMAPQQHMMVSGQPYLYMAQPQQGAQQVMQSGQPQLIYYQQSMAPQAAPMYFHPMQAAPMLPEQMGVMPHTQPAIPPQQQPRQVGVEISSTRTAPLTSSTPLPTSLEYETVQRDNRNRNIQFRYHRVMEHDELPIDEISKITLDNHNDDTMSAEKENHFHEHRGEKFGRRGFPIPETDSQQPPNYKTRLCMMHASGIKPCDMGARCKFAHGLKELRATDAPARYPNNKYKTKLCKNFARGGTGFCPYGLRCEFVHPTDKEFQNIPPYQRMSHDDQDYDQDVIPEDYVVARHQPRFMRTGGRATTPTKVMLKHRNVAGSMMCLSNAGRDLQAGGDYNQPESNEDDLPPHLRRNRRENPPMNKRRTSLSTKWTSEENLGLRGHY

[10] = target: T3, RNA-binding protein pos-1 (Caenorhabditis elegans, UniProt G5EF15); experiment: inhibitors of POS-1/mex-3 RNA binding, dose response, biochemical, fluorescence polarization (AID 1964);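 also: purified POS-1 fused to maltose binding protein made in E. coli; potency of compounds blocking POS-1 binding to fluorescent RNA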
T3 sequence (G5EF15 whole entry): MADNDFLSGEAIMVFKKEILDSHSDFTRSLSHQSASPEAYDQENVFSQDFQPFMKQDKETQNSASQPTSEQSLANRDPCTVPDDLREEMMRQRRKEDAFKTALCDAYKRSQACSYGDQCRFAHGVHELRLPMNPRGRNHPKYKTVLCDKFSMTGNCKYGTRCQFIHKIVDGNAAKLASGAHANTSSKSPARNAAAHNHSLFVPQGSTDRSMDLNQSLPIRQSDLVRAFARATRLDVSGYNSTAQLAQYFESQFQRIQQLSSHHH

[11] = target: Scavenger receptor class B member 1 (Mus musculus, UniProt Q61009); experiment: inhibitors of SR-BI mediated HDL lipid uptake, dose response, ldlA[mSR-BI] cells, fluorescence, cherry pick (AID 493194); type: functional, cell-based;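 also: cellular uptake of fluorescent DiI-labeled HDL measured as cell fluorescence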
Bcl-2-like protein 10 = Bcl-2-like protein 10 (Homo sapiens, UniProt Q9HD36); experiment: displacers of TR3 peptide from Bcl-B, primary screen, selectivity assay for Bfl-1 inhibitor project, biochemical, fluorescence polarization, FITC-TR3 peptide (AID 748);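 also: fluorescence polarization from a fluorescein-labelled TR3 peptide binding purified Bcl-B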
[12] = inhibition of K1F phage lysis, E. coli UTI89, bacterial capsule biogenesis inhibitors, alamar blue (AID 488966); type: functional
[13] = STAT3 activators, late-stage profile, late-stage follow-up, cell-based, STAT1 reporter, BCL3 qPCR, cytotoxicity, panel member Cytotoxicity (AID 2049); type: toxicity
[14] = target: Signal transducer and activator of transcription 3 (Homo sapiens, UniProt P40763); experiment: STAT3 activators, late-stage profile, late-stage follow-up, cell-based, STAT1 reporter, BCL3 qPCR, cytotoxicity, panel member STAT3 Activation (AID 2049)
Sequence of Signal transducer and activator of transcription 3 (P40763 whole entry): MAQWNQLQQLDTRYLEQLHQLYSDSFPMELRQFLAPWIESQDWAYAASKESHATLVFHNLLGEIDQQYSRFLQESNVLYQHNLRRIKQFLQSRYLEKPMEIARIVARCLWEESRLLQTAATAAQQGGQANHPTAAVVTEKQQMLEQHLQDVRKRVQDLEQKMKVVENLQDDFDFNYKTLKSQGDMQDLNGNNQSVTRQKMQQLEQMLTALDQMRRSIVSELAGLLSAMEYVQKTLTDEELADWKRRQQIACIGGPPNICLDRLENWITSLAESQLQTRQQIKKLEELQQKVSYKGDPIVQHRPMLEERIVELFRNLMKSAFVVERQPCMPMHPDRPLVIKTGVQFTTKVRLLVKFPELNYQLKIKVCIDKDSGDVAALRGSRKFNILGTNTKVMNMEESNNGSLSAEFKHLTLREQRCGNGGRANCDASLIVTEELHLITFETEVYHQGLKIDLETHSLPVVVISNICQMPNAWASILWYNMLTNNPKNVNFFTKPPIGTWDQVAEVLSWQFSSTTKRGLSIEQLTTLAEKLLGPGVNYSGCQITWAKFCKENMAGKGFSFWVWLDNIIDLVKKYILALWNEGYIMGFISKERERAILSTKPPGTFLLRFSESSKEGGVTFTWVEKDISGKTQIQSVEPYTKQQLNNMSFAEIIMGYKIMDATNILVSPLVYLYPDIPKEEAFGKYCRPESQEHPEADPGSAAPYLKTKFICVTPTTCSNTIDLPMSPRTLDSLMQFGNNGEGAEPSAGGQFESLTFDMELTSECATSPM

T1 sequence (Q00975 whole entry): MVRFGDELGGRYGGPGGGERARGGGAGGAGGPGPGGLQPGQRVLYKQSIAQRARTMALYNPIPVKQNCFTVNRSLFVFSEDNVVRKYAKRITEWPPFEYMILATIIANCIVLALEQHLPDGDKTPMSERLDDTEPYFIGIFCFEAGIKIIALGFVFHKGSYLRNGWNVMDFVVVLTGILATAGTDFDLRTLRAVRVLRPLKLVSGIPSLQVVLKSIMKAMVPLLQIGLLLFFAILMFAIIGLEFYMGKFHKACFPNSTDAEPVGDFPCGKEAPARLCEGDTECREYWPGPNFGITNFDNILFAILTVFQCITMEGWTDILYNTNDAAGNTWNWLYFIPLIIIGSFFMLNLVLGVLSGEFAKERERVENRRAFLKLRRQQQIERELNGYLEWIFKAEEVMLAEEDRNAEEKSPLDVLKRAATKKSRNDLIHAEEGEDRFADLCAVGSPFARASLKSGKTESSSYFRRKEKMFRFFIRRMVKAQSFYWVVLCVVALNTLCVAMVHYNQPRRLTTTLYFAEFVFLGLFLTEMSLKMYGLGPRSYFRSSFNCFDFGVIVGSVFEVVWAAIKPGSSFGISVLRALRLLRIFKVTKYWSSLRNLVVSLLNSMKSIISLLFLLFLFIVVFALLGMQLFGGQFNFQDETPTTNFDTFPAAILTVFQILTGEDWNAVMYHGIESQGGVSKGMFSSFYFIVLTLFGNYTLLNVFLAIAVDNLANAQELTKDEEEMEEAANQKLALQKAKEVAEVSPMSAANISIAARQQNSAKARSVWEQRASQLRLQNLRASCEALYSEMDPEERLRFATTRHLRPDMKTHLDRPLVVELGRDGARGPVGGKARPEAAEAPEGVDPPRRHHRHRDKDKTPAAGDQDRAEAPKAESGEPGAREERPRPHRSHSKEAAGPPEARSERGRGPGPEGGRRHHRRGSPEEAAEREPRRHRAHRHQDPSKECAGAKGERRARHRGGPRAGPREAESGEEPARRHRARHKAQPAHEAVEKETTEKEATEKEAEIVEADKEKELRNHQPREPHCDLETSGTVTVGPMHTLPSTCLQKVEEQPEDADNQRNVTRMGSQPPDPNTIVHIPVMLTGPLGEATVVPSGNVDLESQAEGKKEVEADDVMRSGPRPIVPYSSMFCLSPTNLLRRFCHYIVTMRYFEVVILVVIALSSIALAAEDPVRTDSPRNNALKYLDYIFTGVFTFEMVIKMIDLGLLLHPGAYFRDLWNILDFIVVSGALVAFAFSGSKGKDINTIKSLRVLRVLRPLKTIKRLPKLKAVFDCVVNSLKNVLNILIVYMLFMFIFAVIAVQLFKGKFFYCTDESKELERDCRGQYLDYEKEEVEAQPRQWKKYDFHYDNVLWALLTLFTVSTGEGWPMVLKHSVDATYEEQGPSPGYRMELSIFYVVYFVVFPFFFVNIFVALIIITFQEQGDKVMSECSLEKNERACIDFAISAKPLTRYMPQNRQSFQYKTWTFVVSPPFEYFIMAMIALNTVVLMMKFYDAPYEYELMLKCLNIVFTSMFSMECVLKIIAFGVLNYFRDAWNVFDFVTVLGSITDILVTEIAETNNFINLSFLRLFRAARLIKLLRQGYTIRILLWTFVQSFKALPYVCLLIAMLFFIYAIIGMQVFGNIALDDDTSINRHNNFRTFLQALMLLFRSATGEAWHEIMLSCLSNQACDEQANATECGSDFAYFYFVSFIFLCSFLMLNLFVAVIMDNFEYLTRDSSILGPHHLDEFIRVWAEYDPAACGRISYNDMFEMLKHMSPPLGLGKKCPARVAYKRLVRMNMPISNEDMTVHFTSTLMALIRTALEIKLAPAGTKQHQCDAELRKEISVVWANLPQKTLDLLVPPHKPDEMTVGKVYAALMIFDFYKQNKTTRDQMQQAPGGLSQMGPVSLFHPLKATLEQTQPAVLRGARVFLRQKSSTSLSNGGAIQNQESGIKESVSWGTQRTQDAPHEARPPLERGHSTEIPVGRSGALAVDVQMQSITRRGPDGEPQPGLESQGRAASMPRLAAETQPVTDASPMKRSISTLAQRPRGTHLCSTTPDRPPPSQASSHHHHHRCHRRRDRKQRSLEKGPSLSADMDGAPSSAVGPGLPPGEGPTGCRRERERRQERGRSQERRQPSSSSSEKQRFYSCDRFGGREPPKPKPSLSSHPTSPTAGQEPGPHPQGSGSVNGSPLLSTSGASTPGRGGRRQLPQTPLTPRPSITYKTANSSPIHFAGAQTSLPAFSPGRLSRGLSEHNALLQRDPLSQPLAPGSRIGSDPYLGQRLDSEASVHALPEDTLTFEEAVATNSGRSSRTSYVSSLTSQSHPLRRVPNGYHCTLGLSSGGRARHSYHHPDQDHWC
T1 sequence (Q02410 whole entry): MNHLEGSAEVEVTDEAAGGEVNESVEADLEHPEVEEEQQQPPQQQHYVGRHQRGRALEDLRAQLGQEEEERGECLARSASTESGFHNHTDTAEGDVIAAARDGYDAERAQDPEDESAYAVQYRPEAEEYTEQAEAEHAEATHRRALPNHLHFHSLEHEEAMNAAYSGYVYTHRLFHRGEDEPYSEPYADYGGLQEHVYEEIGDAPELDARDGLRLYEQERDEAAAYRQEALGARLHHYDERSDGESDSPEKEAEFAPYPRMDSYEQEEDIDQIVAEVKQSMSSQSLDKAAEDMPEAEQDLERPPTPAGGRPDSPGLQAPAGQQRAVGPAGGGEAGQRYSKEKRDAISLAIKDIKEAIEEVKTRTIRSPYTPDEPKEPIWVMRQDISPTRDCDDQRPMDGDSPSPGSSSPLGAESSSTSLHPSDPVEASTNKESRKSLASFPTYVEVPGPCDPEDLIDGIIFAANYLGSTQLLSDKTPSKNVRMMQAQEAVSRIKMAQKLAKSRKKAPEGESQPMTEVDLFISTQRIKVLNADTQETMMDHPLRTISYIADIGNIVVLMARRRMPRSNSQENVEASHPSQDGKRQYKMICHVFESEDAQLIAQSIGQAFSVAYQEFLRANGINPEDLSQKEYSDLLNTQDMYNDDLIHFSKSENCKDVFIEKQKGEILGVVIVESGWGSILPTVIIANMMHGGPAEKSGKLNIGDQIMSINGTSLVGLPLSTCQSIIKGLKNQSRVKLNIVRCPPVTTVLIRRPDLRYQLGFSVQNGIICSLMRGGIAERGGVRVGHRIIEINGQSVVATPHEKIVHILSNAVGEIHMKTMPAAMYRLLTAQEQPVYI
Sequence of Scavenger receptor class B member 1 (Q61009 whole entry): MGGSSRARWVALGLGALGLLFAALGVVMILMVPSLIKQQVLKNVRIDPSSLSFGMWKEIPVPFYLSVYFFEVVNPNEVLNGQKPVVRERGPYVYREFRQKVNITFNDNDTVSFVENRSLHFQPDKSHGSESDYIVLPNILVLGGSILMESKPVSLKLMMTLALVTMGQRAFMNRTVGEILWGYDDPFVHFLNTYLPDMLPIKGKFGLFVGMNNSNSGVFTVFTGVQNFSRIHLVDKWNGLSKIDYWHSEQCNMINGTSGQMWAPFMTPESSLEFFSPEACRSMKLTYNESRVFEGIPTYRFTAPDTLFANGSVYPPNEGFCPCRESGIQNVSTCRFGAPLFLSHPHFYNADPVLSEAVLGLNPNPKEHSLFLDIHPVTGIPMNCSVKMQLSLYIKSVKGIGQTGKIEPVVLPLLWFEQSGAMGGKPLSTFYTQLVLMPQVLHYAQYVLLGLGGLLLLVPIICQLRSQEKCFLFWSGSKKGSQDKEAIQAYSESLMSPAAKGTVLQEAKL
Sequence of Protein Rev (P04618 whole entry): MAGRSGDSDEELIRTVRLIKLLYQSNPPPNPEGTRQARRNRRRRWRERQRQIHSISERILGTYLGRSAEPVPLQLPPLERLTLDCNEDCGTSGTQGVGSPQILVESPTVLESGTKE
Sequence of X-box-binding protein 1 (P17861 whole entry): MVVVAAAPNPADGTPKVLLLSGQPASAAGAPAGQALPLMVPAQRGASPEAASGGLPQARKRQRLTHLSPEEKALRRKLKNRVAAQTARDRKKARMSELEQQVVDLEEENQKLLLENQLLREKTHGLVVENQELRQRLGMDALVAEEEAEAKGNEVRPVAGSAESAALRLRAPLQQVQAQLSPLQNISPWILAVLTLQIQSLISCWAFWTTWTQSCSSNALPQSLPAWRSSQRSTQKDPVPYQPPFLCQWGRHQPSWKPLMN
Sequence of Bcl-2-like protein 10 (Q9HD36 whole entry): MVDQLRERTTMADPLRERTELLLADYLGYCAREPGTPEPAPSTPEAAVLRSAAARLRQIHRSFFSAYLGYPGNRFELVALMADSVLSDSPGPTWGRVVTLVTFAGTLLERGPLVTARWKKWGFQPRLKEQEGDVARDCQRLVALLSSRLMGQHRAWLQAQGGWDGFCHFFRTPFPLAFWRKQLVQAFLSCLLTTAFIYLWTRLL

For CC(=O)Oc1cccc(N2C(=O)C3C(C2=O)C2(C)C=CC3(C)O2)c1 (stereo unspecified), the IC50 [1] was 12 µM (active) and 18.3 µM (active) and the IC50 [2] was 9.86 µM (active) and 9.63 µM (active).

With O=c1oc2ccccc2nc1/C=C(\O)c1ccc(Br)cc1 the IC50 (cells) was 5 µM (active) and the AC50 (Salmon testes DNA) was 56.9 µM (active).

In the case of Cc1cc(Cl)n2c(nc3ccccc32)c1C#N, the EC50 (BJ) is reported as 0.343 µM (inconclusive), the EC50 [3] is reported as 6.06 µM (inconclusive) and the “Absolute IC50 (XBP1)” value (X-box-binding protein 1) is reported as 10 µM. For the same molecule, the AC50 [4] was 1.85 µM (active), the EC50 [5] was 0.54 µM (active) and the AC50 [6] was 5.72 µM (active). For the same molecule, the AC50 [7] was > 70 µM (inactive) and the CC50 (HeLa) was > 11 µM (not active).

In the case of COC(=O)[C@@]1(C#N)[C@@H]2C=CC(C(C)=O)=CN2[C@@H](C(N)=O)[C@@H]1c1ccc(F)cc1, the IC50 [8] is reported as 15.1 µM (inactive), the IC50 (Protein Rev) is reported as 18.3 µM (not active) and the EC50 [9] is reported as 11.4 µM (active). The EC50 [10] was 4.6 µM (active).

For COc1ccc(OC)c(Nc2ccc(Nc3cc(OC)ccc3OC)nn2)c1, the AC50 [11] was 19.8 µM (active).

In the case of COc1cc(CC(=O)OCC(=O)Nc2ncc(Cl)cc2Cl)cc(OC)c1OC, the IC50 (Bcl-2-like protein 10) is reported as 68.3 µM (inactive).

With Cc1nc(SCc2ccccc2)c([N+](=O)[O-])[nH]1 the IC50 [12] was > 150 µM (active).

With COc1cc(NC(=O)c2cc(C3CC3)on2)c(OC)cc1Cl the CC50 [13] was > 55.7 µM (inactive) and the EC50 [14] was 0.00219 µM (active).
